Experimental data published in patent US11028090B2 (Dong Wha Pharm. Co., Ltd., priority 2017, dated 2021).
Counter-ions that a name gives are not always drawn. Like-named read-outs stand apart in the source and are kept apart here.

Key:
[1] = biological target: BRD4 (BD1+BD2) bromodomain (Homo sapiens (Human), UniProt O60885); test: BRD4 binding inhibition (AlphaScreen, GST-BRD4 vs tetraacetylated histone H4 peptide)
How it was run: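 GST-BRD4 (BD1+BD2) and biotinylated tetraacetyl-histone H4 peptide, each at 100 nM in HEPES pH 7.4 buffer with BSA and DTT, were combined with compound. Glutathione acceptor and streptavidin donor beads were added, then incubated 30 min at room temperature in the dark. Read-out was AlphaScreen signal.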

[2] = system: acute myelogenous leukemia cells (MV-4-11 cells); test: Cytotoxicity to acute myelogenous leukemia cells (MV-4-11 cells), CCK-8; details: Homo sapiens, MV4-11, 72 h
[3] = GST-BRD4 (BD1+BD2) / biotinylated acetyl-histone H4 (Lys5,8,12,16) peptide, read-out: IC50, BRD4 binding inhibition
[4] = GST-BRD4 (BD1+BD2) vs biotinylated acetyl-histone H4 peptide, AlphaScreen, read-out: BRD4 IC50
[5] = read-out: MV-4-11 Cytotoxicity IC50
[6] = read-out: IC50, cytotoxicity against acute myelogenous leukemia cells

Row | Structure (SMILES) | IC50 [1, 3] | IC50 [1, 4] | IC50 [2, 5] | IC50 [2, 6] | IC50 ([1]; IC50, BRD4 binding inhibition, GST-BRD4 (BD1+BD2) / biotinylated acetyl-histone H4 (Lys5,8,12,16) peptide)
1 | Cc1nnc2c(NCCCCNC(=O)[C@@H](NC(=O)OC(C)(C)C)C(C)C)nc3cc(N4C[C@@H](C)O[C@@H](C)C4)ccc3n12 [Example 513, (S)-{2-methyl-1-[4-(1-methyl-7-(2,6-dimethyl-morpholine-4-yl)-[1,2,4]triazolo[4,3-a]quinoxaline-4-ylamino)-butylcarbamoyl]-propyl}-carbamic acid-tert-butylester] | ≤ 50 nM | 19 nM | 279 nM |  | 
2 | Cc1nnc2c(NCCCCNC(=O)[C@@H](F)C(C)C)nc3cc(N4CCOCC4)ccc3n12 [Example 500, 2-(S)-fluoro-3-methyl-N-[4-(1-methyl-7-morpholine-4-yl-[1,2,4]triazolo[4,3-a]quinoxaline-4-ylamino)-butyl]-butyramide] | ≤ 50 nM | 40 nM | 98 nM | ≤ 200 nM | 
3 | Cc1nnc2c(NCCCCNC(=O)OC(C)C)nc3cc(N4CCOCC4)ccc3n12 [Example 506, [4-(1-methyl-7-morpholine-4-yl-[1,2,4]triazolo[4,3-a]quinoxaline-4-ylamino)-butyl]-carbamic acid isopropylester] | ≤ 50 nM | 15 nM | 340 nM |  | 
4 | COc1cc2nc(NCCCCNC(=O)CC(C)C)c3nnc(C)n3c2cc1NC(=O)CC(C)(C)C [Example 563] | ≤ 50 nM |  | 559 nM |  | 
5 | Cc1nnc2c(NCCCCN)nc3cc4c(cc3n12)OCCO4 [Example 179, N^1-(1-methyl-8,9-dihydro-7,10-dioxa-2,3,5,11b-tetraaza-cyclopenta[a]anthracene-4-yl)-butane-1,4-diamine ditrifluoroacetic acid] | ≤ 50 nM | 35 nM | 640 nM |  | 
6 | Cc1ccc(NC(=O)c2ccc3c(c2)nc(NCCCCNC(=O)CC(C)C)c2nnc(C)n23)c(N)c1 [Example 216, 1-methyl-4-[4-(3-methyl-butyrylamino)-butylamino]-[1,2,4]triazolo[4,3-a]quinoxaline-7-carboxylic acid-(2-amino-4-methyl-phenyl)-amide] | ≤ 50 nM | 31 nM | 240 nM |  | 
7 | COCCOc1cc2nc(NCCCCNC(=O)c3ccc(C)nc3Cl)c3nnc(C)n3c2cc1OCCOC [Example 172, N-{4-[7,8-bis-(2-methoxy-ethoxy)-1-methyl-[1,2,4]triazolo[4,3-a]quinoxaline-4-ylamino]-butyl}-2-chloro-6-methyl-nicotinamide] | ≤ 50 nM | 40 nM | 280 nM |  | 
8 | Cc1nnc2c(NCCCCNC(=O)[C@@H](O)C(C)C)nc3cc(F)c(F)cc3n12 [Example 39, N-[4-(7,8-difluoro-1-methyl-[1,2,4]triazolo[4,3-a]quinoxaline-4-ylamino)-butyl]-2-(S)-hydroxy-3-methyl-butyramide] | ≤ 10 nM | 6 nM | 190 nM |  | 
9 | Cc1nnc2c(NCCCCNC(=O)[C@@H](NC(=O)C(C)(C)C)C(C)C)nc3cc(N4C[C@@H](C)O[C@@H](C)C4)ccc3n12 [Example 519] | ≤ 50 nM | 49 nM | 400 nM |  | 
10 | Cc1nnc2c(NCCCCNC(=O)CC(C)C)nc3cc(C(=O)Nc4ccccc4N)ccc3n12 [Example 215, 1-methyl-4-[4-(3-methyl-butyrylamino)-butylamino]-[1,2,4]triazolo[4,3-a]quinoxaline-7-carboxylic acid-(2-amino-phenyl)-amide] | ≤ 50 nM | 22 nM | 276 nM |  | 
11 | COCCOc1ccc2c(c1)nc(NCCCCNC(=O)OCC(C)C)c1nnc(C)n12 [Example 369, {4-[7-(2-methoxy-ethoxy)-1-methyl-[1,2,4]triazolo[4,3-a]quinoxaline-4-ylamino]-butyl}-carbamic acid isobutylester] | ≤ 50 nM | 14 nM | 130 nM | ≤ 200 nM | 
12 | COc1ccc2c(c1)nc(NCCCCC(=O)NCC(C)C)c1nnc(C)n12 [Example 655, 5-(7-methoxy-1-methyl-[1,2,4]triazolo[4,3-a]quinoxaline-4-ylamino)-pentanoic acid isobutylamide] | ≤ 50 nM | 11 nM | 80 nM | ≤ 200 nM | 
13 | Cc1nnc2c(NCCCCNC(=O)[C@@H](N)C(C)C)nc3cc(N4CC(C)OC(C)C4)ccc3n12 (stereo partly drawn) [Example 514, 2-(S)-amino-N-{4-[7-(2,6-dimethyl-morpholine-4-yl)-1-methyl-[1,2,4]triazolo[4,3-a]quinoxaline-4-ylamino]-butyl}-3-methyl-butyramide hydrochloride] |  | 60 nM | 432 nM |  | 
14 | Cc1nnc2c(NCCCCNC(=O)CC(C)C)nc3cc(OC(C)C)ccc3n12 [Example 449, N-[-(7-isopropoxy-1-methyl-[1,2,4]triazolo[4,3-a]quinoxaline-4-ylamino)-butyl]-3-methyl-butyramide] | ≤ 50 nM | 27 nM | 300 nM |  | 
15 | CCCOC(=O)N[C@H](C(=O)NCCCCNc1nc2cc(N3C[C@@H](C)O[C@@H](C)C3)ccc2n2c(C)nnc12)C(C)C [Example 516, (S)-(1-{4-[7-(2,6-dimethyl-morpholine-4-yl)-1-methyl-[1,2,4]triazolo[4,3-a]quinoxaline-4-ylamino]-butylcarbamoyl}-2-methyl-propyl)-carbamic acid propylester] | ≤ 50 nM |  | 518 nM |  | 
16 | Cc1nnc2c(NCCCCNC(=O)CC(C)C)nc3cc(NS(=O)(=O)CC(F)(F)F)ccc3n12 [Example 258] | ≤ 50 nM | 49 nM | 345 nM |  | 
17 | Cc1nnc2c(NCCCCNC(=O)CC(C)C)nc3cc(NCCCC#N)ccc3n12 [Example 254, N-{4-[7-(3-cyano-propylamino)-1-methyl-[1,2,4]triazolo[4,3-a]quinoxaline-4-ylamino]-butyl}-3-methyl-butyramide] | ≤ 10 nM | 7 nM | 101 nM | ≤ 200 nM | 
18 | COc1ccc2c(c1)nc(NCCCCNC(=O)C(F)(F)C(F)(F)C(F)(F)F)c1nnc(C)n12 [Example 292, 2,2,3,3,4,4,4-heptafluoro-N-[4-(7-methoxy-1-methyl-[1,2,4]triazolo[4,3-a]quinoxaline-4-ylamino)-butyl]-butyramide] |  | 24 nM | 158 nM | ≤ 200 nM | ≤ 50 nM
19 | COc1cc2nc(NCCCCN)c3nnc(C)n3c2cc1C [Example 465, N^1-(7-methoxy-1,8-dimethyl-[1,2,4]triazolo[4,3-a]quinoxaline-4-yl)-butane-1,4-diamine ditrifluoroacetic acid] |  | 72 nM | 690 nM |  | 
20 | COc1ccc2c(nc(NCCCCNC(=O)OCC(C)C)c3nnc(C)n32)c1Cl [Example 462, [4-(6-chloro-7-methoxy-1-methyl-[1,2,4]triazolo[4,3-a]quinoxaline-4-ylamino)-butyl]-carbamic acid isobutylester] | ≤ 50 nM |  | 600 nM |  | 
21 | COc1ccc2c(c1)nc(NCCCCNC(=O)Cc1ccco1)c1nnc(C)n12 [Example 308, 2-furan-2-yl-N-[4-(7-methoxy-1-methyl-[1,2,4]triazolo[4,3-a]quinoxaline-4-ylamino)-butyl]-acetamide] |  | 58 nM | 20 nM | ≤ 200 nM | 
22 | Cc1nnc2c(NCCCCNC(=O)[C@@H](NS(C)(=O)=O)C(C)C)nc3cc(N4CCOCC4)ccc3n12 [Example 505, 2-(S)-methanesulfonylamino-3-methyl-N-[4-(1-methyl-7-morphonyl-4-yl-[1,2,4]triazolo[4,3-a]quinoxaline-4-ylamino)-butyl]-butyramide] | ≤ 50 nM | 26 nM | 533 nM |  | 
23 | COCCOc1ccc2c(c1)nc(NCCCCNC(=O)CC(C)(C)C)c1nnc(C)n12 [Example 382, N-{4-[7-(2-methoxy-ethoxy)-1-methyl-[1,2,4]triazolo[4,3-a]quinoxaline-4-ylamino]-butyl}-3,3-dimethyl-butyramide] | ≤ 10 nM | 5 nM | 840 nM |  | 
24 | COc1ccc2c(c1)nc(NCCCCNC(=O)[C@@H](NC(=O)C(C)(C)C)C(C)C)c1nnc(C)n12 [Example 323, (S)-2-(2,2-dimethyl-propionylamino)-N-[4-(7-methoxy-1-methyl-[1,2,4]triazolo[4,3-a]quinoxaline-4-ylamino)-butyl]-3-methyl-butyramide] | ≤ 50 nM | 35 nM | 107 nM | ≤ 200 nM | 
25 | COCCOc1ccc2c(c1)nc(NCCCCNC(=O)NC1CCCCC1)c1nnc(C)n12 [Example 426, 1-cyclohexyl-3-{4-[7-(2-methoxy-ethoxy)-1-methyl-[1,2,4]triazolo[4,3-a]quinoxaline-4-ylamino]-butyl}-urea] | ≤ 50 nM | 17 nM | 190 nM | ≤ 200 nM | 
26 | CCC(C)OC(=O)NCCCCNc1nc2cc(OC)ccc2n2c(C)nnc12 (stereo not shown) [Example 280, [4-(7-methoxy-1-methyl-[1,2,4]triazolo[4,3-a]quinoxaline-4-ylamino)-butyl]-carbamic acid-sec-butylester] | ≤ 50 nM | 14 nM | 40 nM | ≤ 200 nM | 
27 | COCCOc1ccc2c(c1)nc(NCCCCNC(=O)[C@@H](O)C(C)C)c1nnc(C)n12 [Example 389, 2-(S)-hydroxy-N-{4-[7-(2-methoxy-ethoxy)-1-methyl-[1,2,4]triazolo[4,3-a]quinoxaline-4-ylamino]-butyl}-3-methyl-butyramide] | ≤ 10 nM | 2 nM | 79 nM | ≤ 200 nM | 
